Reference: the CheMixHub viscosity set
“And” between values parts separate entries of the source, which are not always exact repeats. Equal entries are not always repeated. ± gives the uncertainty stated by the source.

Assay: xn = mol fraction of the nth substance listed

C1C[C@@H]2[C@H]3CC[C@H](C3)[C@@H]2C1 + CCCCCCCCCC
viscosity
Settings | 293.15 K | 298.15 K | 303.15 K | 308.15 K | 313.15 K | 318.15 K | 323.15 K
100 kPa, x1 = 0.1005 | 0.989 ± 0.021 mPa·s and 0.992 ± 0.022 mPa·s | 0.921 ± 0.02 mPa·s | 0.855 ± 0.018 mPa·s and 0.858 ± 0.019 mPa·s | 0.8 ± 0.017 mPa·s and 0.803 ± 0.017 mPa·s | 0.75 ± 0.016 mPa·s and 0.754 ± 0.016 mPa·s | 0.706 ± 0.015 mPa·s and 0.709 ± 0.015 mPa·s | 0.666 ± 0.014 mPa·s and 0.669 ± 0.015 mPa·s
100 kPa, x1 = 0.2006 | 1.074 ± 0.023 mPa·s and 1.083 ± 0.024 mPa·s | 0.993 ± 0.021 mPa·s and 1.002 ± 0.022 mPa·s | 0.925 ± 0.02 mPa·s and 0.931 ± 0.02 mPa·s | 0.863 ± 0.018 mPa·s and 0.869 ± 0.019 mPa·s | 0.808 ± 0.017 mPa·s and 0.813 ± 0.018 mPa·s | 0.759 ± 0.016 mPa·s and 0.764 ± 0.017 mPa·s | 0.715 ± 0.015 mPa·s and 0.72 ± 0.016 mPa·s
100 kPa, x1 = 0.3006 | 1.196 ± 0.026 mPa·s | 1.105 ± 0.024 mPa·s | 1.023 ± 0.022 mPa·s | 0.949 ± 0.021 mPa·s | 0.885 ± 0.019 mPa·s | 0.828 ± 0.018 mPa·s | 0.778 ± 0.017 mPa·s
100 kPa, x1 = 0.3043 | 1.18 ± 0.025 mPa·s | 1.09 ± 0.023 mPa·s | 1.013 ± 0.022 mPa·s | 0.943 ± 0.02 mPa·s | 0.88 ± 0.019 mPa·s | 0.825 ± 0.018 mPa·s | 0.777 ± 0.017 mPa·s
100 kPa, x1 = 0.3995 | 1.297 ± 0.028 mPa·s | 1.195 ± 0.026 mPa·s | 1.105 ± 0.024 mPa·s | 1.027 ± 0.022 mPa·s | 0.958 ± 0.021 mPa·s | 0.897 ± 0.019 mPa·s | 0.841 ± 0.018 mPa·s
100 kPa, x1 = 0.4006 | 1.306 ± 0.029 mPa·s | 1.203 ± 0.026 mPa·s | 1.113 ± 0.024 mPa·s | 1.033 ± 0.023 mPa·s | 0.964 ± 0.021 mPa·s | 0.902 ± 0.02 mPa·s | 0.848 ± 0.019 mPa·s
100 kPa, x1 = 0.4977 | 1.442 ± 0.031 mPa·s | 1.327 ± 0.029 mPa·s | 1.226 ± 0.027 mPa·s | 1.137 ± 0.025 mPa·s | 1.057 ± 0.023 mPa·s | 0.988 ± 0.021 mPa·s | 0.925 ± 0.02 mPa·s
100 kPa, x1 = 0.4997 | 1.45 ± 0.032 mPa·s | 1.333 ± 0.029 mPa·s | 1.232 ± 0.027 mPa·s | 1.142 ± 0.025 mPa·s | 1.063 ± 0.023 mPa·s | 0.99 ± 0.022 mPa·s | 0.927 ± 0.02 mPa·s
100 kPa, x1 = 0.5986 | 1.619 ± 0.035 mPa·s | 1.486 ± 0.033 mPa·s | 1.37 ± 0.03 mPa·s | 1.267 ± 0.028 mPa·s | 1.176 ± 0.026 mPa·s | 1.096 ± 0.024 mPa·s | 1.023 ± 0.022 mPa·s
100 kPa, x1 = 0.6007 | 1.629 ± 0.036 mPa·s | 1.495 ± 0.033 mPa·s | 1.378 ± 0.031 mPa·s | 1.275 ± 0.028 mPa·s | 1.184 ± 0.026 mPa·s | 1.103 ± 0.024 mPa·s | 1.031 ± 0.023 mPa·s
100 kPa, x1 = 0.7 | 1.859 ± 0.041 mPa·s | 1.7 ± 0.038 mPa·s | 1.562 ± 0.035 mPa·s | 1.441 ± 0.032 mPa·s | – | 1.238 ± 0.028 mPa·s | 1.155 ± 0.026 mPa·s
100 kPa, x1 = 0.7001 | 1.849 ± 0.041 mPa·s | 1.692 ± 0.037 mPa·s | 1.555 ± 0.034 mPa·s | 1.435 ± 0.032 mPa·s | – | 1.234 ± 0.027 mPa·s | 1.15 ± 0.025 mPa·s
100 kPa, x1 = 0.7963 | 2.117 ± 0.047 mPa·s | 1.938 ± 0.043 mPa·s | 1.776 ± 0.04 mPa·s | 1.634 ± 0.036 mPa·s | 1.51 ± 0.034 mPa·s | 1.398 ± 0.031 mPa·s | 1.299 ± 0.029 mPa·s
100 kPa, x1 = 0.8002 | 2.153 ± 0.048 mPa·s | 1.963 ± 0.044 mPa·s | 1.798 ± 0.04 mPa·s | 1.655 ± 0.037 mPa·s | – | 1.413 ± 0.032 mPa·s | 1.313 ± 0.029 mPa·s
100 kPa, x1 = 0.8994 | 2.512 ± 0.057 mPa·s | 2.284 ± 0.052 mPa·s | 2.086 ± 0.047 mPa·s | 1.914 ± 0.043 mPa·s | 1.763 ± 0.04 mPa·s | 1.629 ± 0.037 mPa·s | 1.511 ± 0.034 mPa·s
100 kPa, x1 = 0.8995 | 2.525 ± 0.057 mPa·s | 2.294 ± 0.051 mPa·s | 2.093 ± 0.047 mPa·s | 1.918 ± 0.043 mPa·s | 1.765 ± 0.04 mPa·s | 1.631 ± 0.037 mPa·s | 1.513 ± 0.034 mPa·s
101 kPa, x2 = 0.4893 | 1.525 ± 0.039 mPa·s | – | – | – | – | – | –
101 kPa, x2 = 0.6905 | 1.245 ± 0.032 mPa·s | – | – | – | – | – | –

O=S(=O)([O-])[O-].[O]=[V+2] + O
viscosity, 100 kPa
Settings | 293.15 K | 298.15 K | 303.15 K | 308.15 K | 313.15 K | 318.15 K | 323.15 K
x1 = 0.000898 | 1.035 ± 0.022 mPa·s | 0.9204 ± 0.02 mPa·s | 0.8258 ± 0.018 mPa·s | 0.7466 ± 0.016 mPa·s | 0.6802 ± 0.014 mPa·s | 0.6242 ± 0.013 mPa·s | 0.576 ± 0.012 mPa·s
x1 = 0.00129 | 1.048 ± 0.022 mPa·s | 0.9314 ± 0.02 mPa·s | 0.836 ± 0.018 mPa·s | 0.7558 ± 0.016 mPa·s | 0.688 ± 0.015 mPa·s | 0.6311 ± 0.013 mPa·s | 0.5827 ± 0.012 mPa·s
x1 = 0.00163 | 1.068 ± 0.023 mPa·s | 0.9499 ± 0.02 mPa·s | 0.8519 ± 0.018 mPa·s | 0.7707 ± 0.016 mPa·s | 0.7015 ± 0.015 mPa·s | 0.6439 ± 0.014 mPa·s | 0.5926 ± 0.013 mPa·s
x1 = 0.002247 | 1.089 ± 0.055 mPa·s | 0.9678 ± 0.049 mPa·s | 0.8664 ± 0.044 mPa·s | 0.7814 ± 0.04 mPa·s | – | – | –
x1 = 0.002326 | 1.101 ± 0.023 mPa·s | 0.978 ± 0.021 mPa·s | 0.8762 ± 0.019 mPa·s | 0.7911 ± 0.017 mPa·s | 0.7207 ± 0.015 mPa·s | 0.6594 ± 0.014 mPa·s | 0.6101 ± 0.013 mPa·s
x1 = 0.002883 | 1.132 ± 0.024 mPa·s | 1.005 ± 0.021 mPa·s | 0.8997 ± 0.019 mPa·s | 0.8136 ± 0.017 mPa·s | 0.7379 ± 0.016 mPa·s | 0.6736 ± 0.014 mPa·s | 0.6205 ± 0.013 mPa·s
x1 = 0.003583 | 1.154 ± 0.025 mPa·s | 1.024 ± 0.022 mPa·s | 0.9168 ± 0.019 mPa·s | 0.8267 ± 0.018 mPa·s | 0.7514 ± 0.016 mPa·s | 0.6872 ± 0.015 mPa·s | 0.6348 ± 0.014 mPa·s
x1 = 0.004098 | 1.174 ± 0.025 mPa·s | 1.042 ± 0.022 mPa·s | 0.9321 ± 0.02 mPa·s | 0.8405 ± 0.018 mPa·s | 0.7626 ± 0.016 mPa·s | 0.6972 ± 0.015 mPa·s | 0.6409 ± 0.014 mPa·s
x1 = 0.004417 | 1.19 ± 0.025 mPa·s | – | 0.9437 ± 0.02 mPa·s | 0.8499 ± 0.018 mPa·s | 0.7718 ± 0.016 mPa·s | 0.7049 ± 0.015 mPa·s | 0.6484 ± 0.014 mPa·s
x1 = 0.00448 | 1.189 ± 0.06 mPa·s | – | 0.943 ± 0.048 mPa·s | 0.8499 ± 0.043 mPa·s | – | – | –
x1 = 0.005377 | 1.236 ± 0.026 mPa·s | 1.094 ± 0.023 mPa·s | 0.9762 ± 0.021 mPa·s | 0.8796 ± 0.019 mPa·s | 0.7968 ± 0.017 mPa·s | 0.7274 ± 0.015 mPa·s | 0.6684 ± 0.014 mPa·s
x1 = 0.006709 | 1.297 ± 0.066 mPa·s | 1.148 ± 0.058 mPa·s | 1.024 ± 0.052 mPa·s | – | – | – | –
x1 = 0.00893 | 1.418 ± 0.072 mPa·s | 1.252 ± 0.063 mPa·s | 1.115 ± 0.056 mPa·s | – | – | – | –
x1 = 0.0111 | 1.548 ± 0.078 mPa·s | 1.364 ± 0.069 mPa·s | 1.212 ± 0.061 mPa·s | – | – | – | –
x1 = 0.0133 | 1.696 ± 0.086 mPa·s | 1.491 ± 0.075 mPa·s | 1.322 ± 0.067 mPa·s | – | – | – | –
x1 = 0.0155 | 1.854 ± 0.094 mPa·s | 1.627 ± 0.082 mPa·s | 1.44 ± 0.073 mPa·s | – | – | – | –
x1 = 0.0177 | 2.031 ± 0.1 mPa·s | 1.777 ± 0.09 mPa·s | 1.57 ± 0.079 mPa·s | – | – | – | –
x1 = 0.01986 | 2.226 ± 0.11 mPa·s | 1.943 ± 0.098 mPa·s | 1.711 ± 0.086 mPa·s | – | – | – | –
x1 = 0.02202 | 2.436 ± 0.12 mPa·s | 2.115 ± 0.21 mPa·s and 2.121 ± 0.11 mPa·s | – | – | – | – | –
x1 = 0.02418 | 2.662 ± 0.13 mPa·s | 2.312 ± 0.12 mPa·s | 2.027 ± 0.1 mPa·s | – | – | – | –
x1 = 0.02631 | 2.89 ± 0.15 mPa·s | 2.509 ± 0.13 mPa·s | 2.196 ± 0.11 mPa·s | – | – | – | –
x1 = 0.03893 | – | – | – | – | – | 2.575 ± 0.26 mPa·s | –
